Source: patent publication US20260297164A1, “ANTI-FIBROTIC PEPTIDES AND USES THEREOF” (Deackt, Inc., priority 2021, published 2026)

System: mouse lung fibroblasts
Assay: FasL-induced cell death of TGF-β1-stimulated mouse lung fibroblasts
Format: cell-based
Conditions: wild-type cells, TGF-β1 stimulation; FasL 200 ng/ml
Description: FIG. 2. CD148 deficiency in fibroblasts worsens pulmonary fibrosis in bleomycin-treated mice and increases fibroblast activation in response to TGF-β1. CD148 fibroblast-specific knockout mice (Ptprj^fl/fl Col1a2^Cre-ER(T)+/0 were developed as described in Methods. (A) Ptprj^fl/fl Col1a2^Cre-ER(T)+/0 mice or Col1a2^Cre-ER(T)+/0 (wild type) mice were exposed to BLM to induce lung fibrosis. At day 21, mouse lungs were harvested and stained with Masson's trichrome (n=3 for saline and n=5 for BLM groups). (B) Hydroxyproline content was measured in the left lung of Ptprj^fl/fl Col1a2^Cre-ER(T)+/0 mice (n=12) and Col1a2^Cre-ER(T)+/0 (WT) mice (n=12) exposed to BLM, and Ptprj^fl/fl Col1a2^Cre-ER(T)+/0 (n=6) and Col1a2^Cre-ER(T)+/0 (n=6) exposed to saline; at day 21. (C) Relative survival at day 0-21 after BLM. (D-E), α-SMA and CD148 expression in harvested lungs were measured by western blot (n=3-5 for each condition). (F-G) Gene expression of Fn and Col1a1, and Ctgf in harvested lungs was measured using qPCR (n=5 for each condition). […] (I) mRNA levels of Col1a1 and Fn were measured by qPCR (n=5 for each condition). […] Gel contractility was measured at 0, 12 and 24 h after TGF-β1 (10 ng/ml) stimulation (n=6 for each condition). […] At 24 h, cell viability was measured with MTT assay (n=5 for each condition). […]

## TGF-β1
  FasL-induced cell death and apoptosis: induced resistance
